The results in this text go back to patent publication US11578087B2, “Oxaborole esters and uses thereof” (priority 2016, dated 2023).

Assay [1] has as its system IL3000 T. congolense (drug sensitive) strain. In words: In vitro Alamar Blue 72 h drug sensitivity assay for T. congolense. The class given is cell-based, Trypanosoma congolense. Particulars: bloodstream form, 69 h + 3 h Resazurin, 34° C., read-out: IC50: I Org. Growth T. congolense 3 d. Put shortly:
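IC50 values derive from 11-point curves averaged over at least three independent runs, with fluorescence read at 536 nm excitation and 588 nm emission. Resazurin was added for a final 3 h after 69 h compound exposure of bloodstream forms (HMI medium, 20% bovine serum, 34° C, 5% CO2).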

The test system of assay [2] is STIB719/ILRAD560 T. vivax (drug sensitive) strain. In words: Ex vivo Alamar Blue 48 h drug sensitivity assay for T. vivax. The class given is cell-based. The note with it: Trypanosoma vivax, ex vivo bloodstream form from mouse, 45 hrs + 3 hrs Resazurin, 37° C., read-out: IC50: I Hypoxanthine Incorporation T. vivax 2 d. In general terms: Alamar Blue is a resazurin reagent that responds to reducing activity.

Structures are written as SMILES. Where two headings read alike, the source gives them in different places.

As to `COC(=O)[C@H](CCc1ccccc1)NC(=O)c1ccc2c(c1)B(O)OC2` [Example 6-027, Methyl (S)-2-(1-hydroxy-1,3-dihydrobenzo[c][1,2]oxaborole-6-carboxamido)-4-phenylbutanoate], the IC50 in assay [1] (Trypanosoma congolense, 72 h) lay within 10 to 5000 nM; in assay [2], 50 to 2000 nM.

For `CCc1c(C(=O)N[C@H](C(=O)OCc2ccc(F)cc2)C(C)C)ccc2c1B(O)OC2` [Example 6-052, 4-Fluorobenzyl (7-ethyl-1-hydroxy-1,3-dihydrobenzo[c][1,2]oxaborole-6-carbonyl)-L-valinate], the IC50 in assay [1] (Trypanosoma congolense, 72 h) was less than 0.5 nM; in assay [2], less than 0.5 nM.

For the compound `CC(C)[C@H](NC(=O)c1ccc2c(c1)B(O)OC2)C(=O)OCc1ccc(F)cc1F` [Example 6-031, 2,4-Difluorobenzyl (1-hydroxy-1,3-dihydrobenzo[c][1,2]oxaborole-6-carbonyl)-L-valinate], the IC50 in assay [1] (Trypanosoma congolense, 72 h) lay within 0.51 to 9.99 nM; in assay [2] it was 0.51 to 49.9 nM.

With `C[C@H](NC(=O)c1ccc2c(c1)B(O)OC2)C(=O)O[C@H](C)c1ccccc1` [Example 6-019, (R)-1-Phenylethyl (1-hydroxy-1,3-dihydrobenzo[c][1,2]oxaborole-6-carbonyl)-L-alaninate], the IC50 in assay [1] (Trypanosoma congolense, 72 h) was 0.51 to 9.99 nM; in assay [2] it was 50 to 2000 nM.

As to `C[C@H](NC(=O)c1ccc2c(c1)B(O)OC2)C(=O)OCc1ccccc1` [Example 6-174, Benzyl (1-hydroxy-1,3-dihydrobenzo[c][1,2]oxaborole-6-carbonyl)-L-alaninate], the IC50 in assay [1] (Trypanosoma congolense, 72 h) was 0.51 to 9.99 nM; in assay [2] it was 50 to 2000 nM.

As for `Cc1c(C(=O)N[C@H](C(=O)OCc2ccc3c(c2)C(=O)CS3(=O)=O)C(C)C)ccc2c1B(O)OC2` [Example 6-104, (1,1-Dioxido-3-oxo-2,3-dihydrobenzo[b]thiophen-5-yl)methyl (1-hydroxy-7-methyl-1,3-dihydrobenzo[c][1,2]oxaborole-6-carbonyl)-L-valinate], the IC50 in assay [1] (Trypanosoma congolense, 72 h) fell in the range of 10 to 5000 nM; in assay [2], 0.51 to 49.9 nM.

Take `Cc1c(C(=O)N[C@H](C(=O)OCc2ccc(F)cc2F)C(C)C)ccc2c1B(O)OC2` [Example 6-039, 2,4-Difluorobenzyl (1-hydroxy-7-methyl-1,3-dihydrobenzo[c][1,2]oxaborole-6-carbonyl)-L-valinate]: the IC50 was 0.51 to 9.99 nM in assay [1] (Trypanosoma congolense, 72 h) and less than 0.5 nM in assay [2].

In the case of `Cc1c(C(=O)N[C@H](C(=O)OCc2ccc(F)c(Cl)c2)C(C)C)ccc2c1B(O)OC2` [Example 6-051, 3-Chloro-4-fluorobenzyl (1-hydroxy-7-methyl-1,3-dihydrobenzo[c][1,2]oxaborole-6-carbonyl)-L-valinate], the IC50 is less than 0.5 nM in assay [1] (Trypanosoma congolense, 72 h) and less than 0.5 nM in assay [2].

With `Cc1c(C(=O)N[C@H](C(=O)OCc2cnc(C(F)(F)F)nc2)C(C)C)ccc2c1B(O)OC2` [Example 6-159, (2-(Trifluoromethyl)pyrimidin-5-yl)methyl (1-hydroxy-7-methyl-1,3-dihydrobenzo[c][1,2]oxaborole-6-carbonyl)-L-valinate], the IC50 in assay [1] (Trypanosoma congolense, 72 h) is less than 0.5 nM; in assay [2] it was less than 0.5 nM.

Take `CC(C)C[C@H](NC(=O)c1ccc2c(c1)B(O)OC2)C(=O)OCc1ccccc1` [Example 6-006, Benzyl (1-hydroxy-1,3-dihydrobenzo[c][1,2]oxaborole-6-carbonyl)-L-leucinate]: the IC50 in assay [1] (Trypanosoma congolense, 72 h) lay within 0.51 to 9.99 nM; in assay [2], 0.51 to 49.9 nM.

Consider `COC(=O)[C@H](C)NC(=O)c1ccc2c(c1)B(O)OC2` [Example 6-016, Methyl (1-hydroxy-1,3-dihydrobenzo[c][1,2]oxaborole-6-carbonyl)-L-alaninate], for which the IC50 is 10 to 5000 nM in assay [1] (Trypanosoma congolense, 72 h) and more than 2000 nM in assay [2].

Turning to `CC(C)[C@H](NC(=O)c1ccc2c(c1C(F)(F)F)B(O)OC2)C(=O)OCc1ccc(F)cc1` [Example 6-070, 4-Fluorobenzyl (1-hydroxy-7-(trifluoromethyl)-1,3-dihydrobenzo[c][1,2]oxaborole-6-carbonyl)-L-valinate], the IC50 in assay [1] (Trypanosoma congolense, 72 h) was 10 to 5000 nM; in assay [2], 50 to 2000 nM.

Take `C[C@@H](OC(=O)[C@H](Cc1ccccc1)NC(=O)c1ccc2c(c1)B(O)OC2)c1ccccc1` [Example 6-021, (R)-1-phenylethyl (1-hydroxy-1,3-dihydrobenzo[c][1,2]oxaborole-6-carbonyl)-L-phenylalaninate]: the IC50 lay in the range of 0.51 to 9.99 nM in assay [1] (Trypanosoma congolense, 72 h) and 0.51 to 49.9 nM in assay [2].

On to `CC(C)c1c(C(=O)N[C@H](C(=O)OCc2ccc(F)cc2)C(C)C)ccc2c1B(O)OC2` [Example 6-062, 4-Fluorobenzyl (1-hydroxy-7-isopropyl-1,3-dihydrobenzo[c][1,2]oxaborole-6-carbonyl)-L-valinate], for which the IC50 was 0.51 to 9.99 nM in assay [1] (Trypanosoma congolense, 72 h) and less than 0.5 nM in assay [2].

In the case of `CC(C)[C@H](NC(=O)c1ccc2c(c1)B(O)OC2(C)C)C(=O)OCc1ccccc1` [Example 6-032, Benzyl (1-hydroxy-3,3-dimethyl-1,3-dihydrobenzo[c][1,2]oxaborole-6-carbonyl)-L-valinate], the IC50 in assay [1] (Trypanosoma congolense, 72 h) is 10 to 5000 nM; in assay [2], more than 2000 nM.

On to `C[C@H](NC(=O)c1ccc2c(c1)B(O)OC2)C(=O)O[C@@H](C)c1ccccc1` [Example 6-022, (S)-1-phenylethyl (1-hydroxy-1,3-dihydrobenzo[c][1,2]oxaborole-6-carbonyl)-L-alaninate], for which the IC50 in assay [1] (Trypanosoma congolense, 72 h) is 10 to 5000 nM; in assay [2], 50 to 2000 nM.

With `C[C@H](OC(=O)[C@H](Cc1ccccc1)NC(=O)c1ccc2c(c1)B(O)OC2)c1ccccc1` [Example 6-024, (S)-1-phenylethyl (1-hydroxy-1,3-dihydrobenzo[c][1,2]oxaborole-6-carbonyl)-L-phenylalaninate], the IC50 in assay [1] (Trypanosoma congolense, 72 h) is 0.51 to 9.99 nM; in assay [2], 50 to 2000 nM.

Turning to `COC(=O)[C@@H](NC(=O)c1ccc2c(c1C)B(O)OC2)[C@@H](C)OCc1ccccc1` [Example 6-078, Methyl O-benzyl-N-(1-hydroxy-7-methyl-1,3-dihydrobenzo[c][1,2]oxaborole-6-carbonyl)-L-threoninate], the IC50 is 10 to 5000 nM in assay [1] (Trypanosoma congolense, 72 h) and 0.51 to 49.9 nM in assay [2].

Take `CC(C)c1c(C(=O)N[C@H](C(=O)OCc2ccc(S(C)(=O)=O)cc2)C(C)C)ccc2c1B(O)OC2` [Example 6-084, 4-(Methylsulfonyl)benzyl (1-hydroxy-7-isopropyl-1,3-dihydrobenzo[c][1,2]oxaborole-6-carbonyl)-L-valinate]: the IC50 in assay [1] (Trypanosoma congolense, 72 h) is 10 to 5000 nM; in assay [2] it was 0.51 to 49.9 nM.

For `Cc1c(C(=O)N[C@H](C(=O)OCc2ccc(F)cc2)[C@H](C)O)ccc2c1B(O)OC2` [Example 6-088, 4-Fluorobenzyl (1-hydroxy-7-methyl-1,3-dihydrobenzo[c][1,2]oxaborole-6-carbonyl)-L-allothreoninate], the IC50 in assay [1] (Trypanosoma congolense, 72 h) is 0.51 to 9.99 nM; in assay [2], 0.51 to 49.9 nM.

`Cc1c(C(=O)N[C@H](C(=O)OCc2ccc(OCCCN3CCCC3)c(F)c2)C(C)C)ccc2c1B(O)OC2` [Example 6-246, 3-Fluoro-4-(3-(pyrrolidin-1-yl)propoxy)benzyl (1-hydroxy-7-methyl-1,3-dihydrobenzo[c][1,2]oxaborole-6-carbonyl)-L-valinate]: the IC50 was 0.51 to 9.99 nM in assay [1] (Trypanosoma congolense, 72 h) and less than 0.5 nM in assay [2].

Regarding `Cc1c(C(=O)N[C@H](C(=O)OCc2cc(F)cc(F)c2)C(C)C)ccc2c1B(O)OC2` [Example 6-048, 3,5-Difluorobenzyl (1-hydroxy-7-methyl-1,3-dihydrobenzo[c][1,2]oxaborole-6-carbonyl)-L-valinate], the IC50 was less than 0.5 nM in assay [1] (Trypanosoma congolense, 72 h) and less than 0.5 nM in assay [2].

In the case of `COC(=O)[C@@H](Cc1ccccc1)NC(=O)c1ccc2c(c1)B(O)OC2` [Example 6-018, Methyl (1-hydroxy-1,3-dihydrobenzo[c][1,2]oxaborole-6-carbonyl)-D-phenylalaninate], the IC50 in assay [1] (Trypanosoma congolense, 72 h) fell in the range of 10 to 5000 nM; in assay [2], 50 to 2000 nM.

On to `COC(=O)[C@H](Cc1ccccc1)NC(=O)c1ccc2c(c1)B(O)OC2` [Example 6-026, Methyl (1-hydroxy-1,3-dihydrobenzo[c][1,2]oxaborole-6-carbonyl)-L-phenylalaninate], for which the IC50 was 0.51 to 9.99 nM in assay [1] and 50 to 2000 nM in assay [2].

For the compound `COC(=O)[C@@H](CCc1ccccc1)NC(=O)c1ccc2c(c1)B(O)OC2` [Example 6-025, Methyl (R)-2-(1-hydroxy-1,3-dihydrobenzo[c][1,2]oxaborole-6-carboxamido)-4-phenylbutanoate], the IC50 in assay [1] (Trypanosoma congolense, 72 h) was 10 to 5000 nM; in assay [2], more than 2000 nM.

In the case of `CC(C)[C@H](NC(=O)c1ccc2c(c1C1CC1)B(O)OC2)C(=O)OCc1ccc(F)cc1` [Example 6-057, 4-Fluorobenzyl (7-cyclopropyl-1-hydroxy-1,3-dihydrobenzo[c][1,2]oxaborole-6-carbonyl)-L-valinate], the IC50 was 0.51 to 9.99 nM in assay [1] (Trypanosoma congolense, 72 h) and less than 0.5 nM in assay [2].

Turning to `Cc1c(C(=O)N[C@H](C(=O)OCc2ccc(F)cc2)c2ccccc2)ccc2c1B(O)OC2` [Example 6-045, 4-Fluorobenzyl (S)-2-(1-hydroxy-7-methyl-1,3-dihydrobenzo[c][1,2]oxaborole-6-carboxamido)-2-phenylacetate], the IC50 in assay [1] (Trypanosoma congolense, 72 h) is less than 0.5 nM; in assay [2] it was less than 0.5 nM.

With `CCCc1c(C(=O)N[C@H](C(=O)OCc2ccc(F)cc2)C(C)C)ccc2c1B(O)OC2` [Example 6-064, 4-fluorobenzyl (1-hydroxy-7-propyl-1,3-dihydrobenzo[c][1,2]oxaborole-6-carbonyl)-L-valinate], the IC50 in assay [1] (Trypanosoma congolense, 72 h) lay in the range of 0.51 to 9.99 nM; in assay [2], 0.51 to 49.9 nM.
